Laboratory results from article PMC12749748, “Chemically-induced degradation of the endoplasmic-reticulum stress sensor IRE1 by a VHL-recruiting chimera” (Nature Communications, 2025).

Legend:
[1] = molecular target: T1, IRE1.KR with recombinant CRL2^VHL complex (Homo sapiens, UniProt O75460+P40337); test: In vitro ubiquitination of recombinant IRE1.KR by CRL2^VHL; assay type: biochemical; conditions: 0.2 µM IRE1, 0.2 µM G6374, UBE2R1, native ubiquitin
T1 construct: Recombinant human IRE1.KR (G547-L977) was purified using an established protocol; His6 (with TEV protease cleavage site) (N, cleaved yes); made in house; host or cells: Sf9 (IRE1.KR)
Experimental: The protocol for the in vitro ubiquitination experiment was adapted from a previous publication.
The ubiquitination reaction buffer contained 30 mM Tris pH 7.5, 100 mM NaCl, 5 mM MgCl2, 2 mM ATP, and 2 mM DTT. Recombinant proteins and G6374 with high stock concentrations were pre-diluted in binding buffer containing 30 mM Tris, pH 7.5, 100 mM NaCl, 1 mM DTT for the purpose of accurate pipetting.
The 0.2 µM IRE1: 0.2 µM G6374 (or DMSO) complex was pre-incubated for 15 min at room temperature, then incubated with the neddylation reaction mixture containing 0.2 µM VHL:EloB:EloC, 0.2 µM CUL2-RBX1, 0.1 µM NAE1:UBA3, 1 μM UBE2M, 3 μM NEDD8 for another 15 min at room temperature. Meanwhile, the ubiquitination reaction mixture containing 1 μM UBE1, 5 μM UBE2R1 (or UBE2D1, UBE2D2), and 500 μM ubiquitin or methyl-ubiquitin was prepared and pre-incubated for 15 min before incubation with the neddylation reaction mixture containing IRE1:G6374. Samples were taken at each timepoint and quenched in NuPage LDS buffer supplemented with NuPAGE sample reducing agent, then boiled at 95 °C for 10 min. Ubiquitinated products were visualized by IB with the IRE1 antibody.

[2] = test system: kinases inhibited by 90% or more; test: Immunoblot of kinases inhibited by 90% or more, for depletion in AMO1 and KMS27 cells; assay type: cell-based; conditions: AMO1 and KMS27 cells, 0.1, 0.3 and 1 µM, 4 h
Experimental: (§1) Cells were lysed in buffer containing 20 mM HEPES 7.2, 150 mM NaCl, and 1% Triton X-100, supplemented with fresh protease and phosphatase inhibitors (Invitrogen, #78440), cleared by centrifugation at 12,000 × g for 10 min, and analyzed by BCA protein assay (Thermo Fisher Scientific, #23227). Equal protein amounts were loaded, separated by SDS-PAGE, electrotransferred to nitrocellulose membranes using the iBLOT2 system (Invitrogen), and blocked in 5% nonfat milk solution for 60 min. Membranes were probed with primary antibodies at 1:1000 dilution in 5% milk at 4 °C overnight. Signal was detected using appropriate horseradish peroxidase (HRP)-conjugated secondary antibodies at 1:10,000 in 5% milk at room temperature for 1–2 h. Bands were visualized by the Azure 600 western blot imaging system (Azure Biosystems). For in vitro ubiquitination assays performed with Me-Ub, bands were visualized by the Odyssey CLx Imager (LI‑COR) after incubating the blots with the IRDye 800CW (LI-COR) secondary antibodies at 1:10,000 in Intercept Blocking Buffer (LI-COR) at room temperature for 1–2 h. […]
(§2) The kinome selectivity of G6374 was assessed at 1 μM for 1 h versus a panel of 220 human kinases (SelectScreen Kinase Profiling Services, Thermo Fisher Scientific). […]

MELK = molecular target: T2, MELK (Homo sapiens, UniProt Q14680); test: Immunoblot of MELK depletion in AMO1 cells; assay type: cell-based; conditions: additional replicates
T2 construct: endogenous in cells; host or cells: AMO1
Experimental: as §1, §2

[3] = test system: panel of 220 human kinases; test: SelectScreen kinase profiling, panel of 220 kinases; assay type: biochemical; conditions: 1 µM, 1 h, besides IRE1
Experimental: The kinome selectivity of G6374 was assessed at 1 μM for 1 h versus a panel of 220 human kinases (SelectScreen Kinase Profiling Services, Thermo Fisher Scientific). The assays were conducted using either the Z’-LYTE technology to assess inhibition of enzyme activity ([ATP] = Km) or the TR-FRET-based LanthaScreen Eu Kinase Binding assay to assess competitive displacement of an ATP site binding probe. Assay results were normalized to positive and negative controls to determine percent inhibition. Image was created by KNIME Report Designer (KNIME.com AG, Zurich, Switzerland). Kinases for which ATP binding was inhibited by more than 90% were further examined by IB analysis for depletion by G6374 in AMO1 cells (4 h incubation).

IRE1 E621A, E836A:VHL = molecular target: T3, IRE1 E621A, E836A:VHL (Homo sapiens, UniProt O75460+P40337, E621A/E836A); test: NanoBRET IRE1:VHL interaction, IRE1 E621A, E836A, HEK293T cells; assay type: cell-based
T3 construct: N2731; host or cells: HEK293T
Experimental: 8 × 10^5 293T cells per well were seeded in 6-well plates (Costar, #3516) and incubated at 37 °C, 5% CO2 for 6 h. A mixture of 0.2 µg ERN1 (IRE1)-NanoLuc Fusion Vector (Promega, NV1321), 2 µg HaloTag-VHL Fusion Vector (Promega, N2731), 6 µl FuGENE HD Transfection Reagent (Promega, E2311), and 100 µL Opti-MEM I reduced serum medium (Gibco, #31985062) per well was incubated at room temperature for 20 min before adding to cells. For expression of IRE1 mutants, site-directed mutagenesis was performed using the ERN1-NanoLuc Fusion Vector as the DNA template, and the transfection mixture was prepared in the same way as WT IRE1. After 18 h, cells from 6-well plates were trypsinized, resuspended in Opti-MEM I reduced serum medium, and reseeded into 96-well plates (Costar, #3917), with or without the addition of HaloTag NanoBRET 618 Ligand (Promega, G9801). After 18 h of incubation, a titration of G6374 (dilutions made in Opti-MEM I reduced serum medium) was added to the cells. After 2 h of G6374 treatment, NanoBRET Nano-Glo Substrate (Promega, N1571) was added to cells. The 96-well plates were imaged by GloMax Discover Microplate Reader (Promega, GM3000) with the default “BRET: NanoBRET 618” protocol (Donor: 450 BP; Acceptor: 600 LP; Integration: 0.3 s). Data analysis was performed according to the user manual.

T2 sequence (Q14680 whole entry): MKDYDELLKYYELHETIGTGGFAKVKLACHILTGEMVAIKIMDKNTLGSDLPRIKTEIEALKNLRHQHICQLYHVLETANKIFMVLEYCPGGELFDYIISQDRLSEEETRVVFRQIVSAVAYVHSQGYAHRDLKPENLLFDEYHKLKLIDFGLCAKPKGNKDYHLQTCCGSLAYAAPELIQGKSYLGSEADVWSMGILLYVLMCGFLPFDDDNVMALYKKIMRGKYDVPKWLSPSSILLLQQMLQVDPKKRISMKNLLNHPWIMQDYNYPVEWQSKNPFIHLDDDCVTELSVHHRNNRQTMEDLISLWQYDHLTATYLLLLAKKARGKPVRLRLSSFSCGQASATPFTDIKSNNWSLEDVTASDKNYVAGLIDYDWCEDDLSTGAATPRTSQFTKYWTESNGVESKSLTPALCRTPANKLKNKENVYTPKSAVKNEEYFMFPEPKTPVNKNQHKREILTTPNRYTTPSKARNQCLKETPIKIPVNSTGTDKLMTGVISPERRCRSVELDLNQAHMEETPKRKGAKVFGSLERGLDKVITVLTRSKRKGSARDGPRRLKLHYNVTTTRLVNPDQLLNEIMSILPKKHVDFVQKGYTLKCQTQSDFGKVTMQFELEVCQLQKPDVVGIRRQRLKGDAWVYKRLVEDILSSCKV
T3 sequence (P62877 whole entry): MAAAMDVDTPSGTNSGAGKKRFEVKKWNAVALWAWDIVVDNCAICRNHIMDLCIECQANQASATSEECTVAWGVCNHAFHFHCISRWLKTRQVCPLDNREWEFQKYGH
T3 sequence (Q15370 whole entry, further chain): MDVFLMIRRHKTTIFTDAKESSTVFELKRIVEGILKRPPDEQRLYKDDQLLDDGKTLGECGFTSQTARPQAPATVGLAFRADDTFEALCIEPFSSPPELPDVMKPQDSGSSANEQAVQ
T3 sequence (Q15369 whole entry, further chain): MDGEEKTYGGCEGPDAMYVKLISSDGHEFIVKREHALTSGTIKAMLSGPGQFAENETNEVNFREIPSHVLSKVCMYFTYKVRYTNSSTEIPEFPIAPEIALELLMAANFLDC
T3 sequence (Q13617 whole entry, further chain): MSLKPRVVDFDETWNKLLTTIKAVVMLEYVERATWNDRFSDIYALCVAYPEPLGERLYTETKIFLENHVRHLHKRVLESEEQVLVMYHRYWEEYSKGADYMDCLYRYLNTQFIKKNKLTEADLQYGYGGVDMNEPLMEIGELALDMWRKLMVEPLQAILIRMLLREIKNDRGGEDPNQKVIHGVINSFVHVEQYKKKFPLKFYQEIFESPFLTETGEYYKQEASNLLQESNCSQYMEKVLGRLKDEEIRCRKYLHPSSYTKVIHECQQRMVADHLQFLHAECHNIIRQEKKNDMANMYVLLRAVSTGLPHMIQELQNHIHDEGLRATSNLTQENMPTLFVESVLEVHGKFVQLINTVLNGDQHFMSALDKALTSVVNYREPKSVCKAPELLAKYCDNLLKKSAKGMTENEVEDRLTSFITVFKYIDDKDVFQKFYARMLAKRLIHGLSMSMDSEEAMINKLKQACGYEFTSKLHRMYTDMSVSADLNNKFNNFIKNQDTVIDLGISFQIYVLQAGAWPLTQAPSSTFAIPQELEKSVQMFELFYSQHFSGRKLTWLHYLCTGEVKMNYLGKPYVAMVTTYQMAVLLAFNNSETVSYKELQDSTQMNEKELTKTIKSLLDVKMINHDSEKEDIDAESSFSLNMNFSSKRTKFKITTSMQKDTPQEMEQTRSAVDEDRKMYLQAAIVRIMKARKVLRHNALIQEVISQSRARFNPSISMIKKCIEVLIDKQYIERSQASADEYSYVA
T3 sequence (P40337 whole entry): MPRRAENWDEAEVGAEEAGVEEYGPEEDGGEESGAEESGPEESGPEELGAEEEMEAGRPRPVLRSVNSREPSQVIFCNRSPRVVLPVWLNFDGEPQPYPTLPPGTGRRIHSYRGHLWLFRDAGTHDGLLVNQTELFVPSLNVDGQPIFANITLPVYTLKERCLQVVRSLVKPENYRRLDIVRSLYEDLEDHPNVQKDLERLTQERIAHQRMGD
T3 sequence (O75460 19-977 E621A/E836A): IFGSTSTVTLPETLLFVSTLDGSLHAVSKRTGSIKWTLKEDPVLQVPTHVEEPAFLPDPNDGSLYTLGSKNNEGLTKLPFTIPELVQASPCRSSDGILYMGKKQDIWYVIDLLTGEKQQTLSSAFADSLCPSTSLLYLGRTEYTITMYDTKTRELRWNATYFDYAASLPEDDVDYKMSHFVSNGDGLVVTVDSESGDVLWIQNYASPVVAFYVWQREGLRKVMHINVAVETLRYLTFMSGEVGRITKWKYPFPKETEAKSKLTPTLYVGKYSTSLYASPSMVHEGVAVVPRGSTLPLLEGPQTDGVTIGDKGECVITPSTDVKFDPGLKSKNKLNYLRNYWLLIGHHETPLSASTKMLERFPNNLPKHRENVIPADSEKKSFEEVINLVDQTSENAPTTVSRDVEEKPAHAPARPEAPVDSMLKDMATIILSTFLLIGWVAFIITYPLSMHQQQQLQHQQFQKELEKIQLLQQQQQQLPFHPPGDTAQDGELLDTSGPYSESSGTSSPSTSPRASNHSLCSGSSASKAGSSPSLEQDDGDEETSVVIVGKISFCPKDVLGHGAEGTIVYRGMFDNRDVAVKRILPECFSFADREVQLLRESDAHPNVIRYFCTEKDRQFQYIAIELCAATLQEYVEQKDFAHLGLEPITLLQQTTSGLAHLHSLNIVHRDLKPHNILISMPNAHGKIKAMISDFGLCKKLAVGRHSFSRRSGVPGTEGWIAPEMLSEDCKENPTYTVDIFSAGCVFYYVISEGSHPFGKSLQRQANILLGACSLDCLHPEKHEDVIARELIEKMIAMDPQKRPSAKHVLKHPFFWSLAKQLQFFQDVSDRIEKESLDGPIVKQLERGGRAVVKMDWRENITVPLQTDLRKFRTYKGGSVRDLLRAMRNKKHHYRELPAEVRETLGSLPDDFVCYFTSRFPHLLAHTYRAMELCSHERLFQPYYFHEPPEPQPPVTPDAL

Cc1ncsc1-c1ccc(CNC(=O)[C@@H]2C[C@@H](O)CN2C(=O)[C@@H](NC(=O)CCCCN2CCN([C@H]3CC[C@H](Nc4ncc5ccc(=O)n(C(C)C)c5n4)CC3)CC2)C(C)(C)C)cc1 [G6374]
IRE1.KR polyubiquitination in vitro [1]: clear G6374-dependent IRE1 polyubiquitination
depletion of the other eight kinases (JNK3 not detectable) [2]: not appreciably depleted
depletion of MELK (MELK): MELK is not depleted
number of other kinases inhibited by >90% [3]: 9
EC50 (IRE1 E621A, E836A:VHL): 50 ± 20 nM
